# Test system: Aβ42 production
# Assay: Quantification of Aβ peptide in culture of neurons from rat fetus brain (Aβ ELISA)
# Assay type: cell-based
# Details: Neuron, 72 h; rat primary neuronal culture (cerebral cortex, embryonic day 18 Wistar rats); medium collected three days after addition of the compound; Aβx-42 ELISA; read-out: Aβ42 production reducing effect IC50
# Protocol: Quantification of Aβ Peptide in Culture of Neurons from Rat Fetus Brain
# (1) Rat Primary Neuronal Culture
# Primary neuronal cultures were prepared from the cerebral cortex of embryonic day 18 Wistar rats (Charles River Japan, Yokohama, Japan). Specifically, the embryos were aseptically removed from pregnant rats under ether anesthesia. The brain was isolated from the embryo and immersed in an ice-cold L-15 medium (such as Invitrogen Corp. Cat #11415-064, Carlsbad, Calif., USA, or SIGMA L1518). The cerebral cortex was collected from the isolated brain under a stereoscopic microscope. The cerebral cortex fragments collected were enzymatically treated in an enzyme solution containing 0.25% trypsin (Invitrogen Corp. Cat #15050-065, Carlsbad, Calif., USA) and 0.01% DNase (Sigma D5025, St. Louis, Mo., USA) at 37° C. for 30 minutes to disperse the cells. Here, the enzymatic reaction was stopped by adding inactivated horse serum to the solution. The enzymatically treated solution was centrifuged at 1,500 rpm for five minutes to remove the supernatant. 5 to 10 mL of a medium was added to the resulting cell mass. Neurobasal medium (Invitrogen Corp. Cat #21103-049, Carlsbad, Calif., USA) supplemented with 2% B27 supplement (Invitrogen Corp. Cat #17504-044, Carlsbad, Calif., USA), 25 μM 2-mercaptoethanol (2-ME, WAKO Cat #139-06861, Osaka, Japan), 0.5 mM L-glutamine (Invitrogen Corp. Cat #25030-081, Carlsbad, Calif., USA), and Antibiotics-Antimycotics (Invitrogen Corp. Cat #15240-062, Carlsbad, Calif., USA) was used as the medium (Neurobasal/B27/2-ME). However, the above Neurobasal medium not supplemented with 2-ME (Neurobasal/B27) was used for the assay. The cells were redispersed by mild pipetting of the cell mass to which the medium was added. The cell dispersion was filtered through a 40-μm nylon mesh (Cell Strainer, Cat #35-2340, Becton Dickinson Labware, Franklin Lakes, N.J., USA) to remove the remaining cell mass, and thus a neuronal cell suspension was obtained. The neuronal cell suspension was diluted with the medium and then plated in a volume of 100 μL/well at an initial cell density of 5×10^5 cells/cm^2 in a 96-well polystyrene culture plate pre-coated with poly-L or D-lysine (Falcon Cat #35-3075, Becton Dickinson Labware, Franklin Lakes, N.J., USA coated with poly-L-lysine using the method shown below, or BIOCOAT™ cell environments Poly-D-lysine cell ware 96-well plate, Cat #35-6461, Becton Dickinson Labware, Franklin Lakes, N.J., USA). Poly-L-lysine coating was carried out as follows. 100 μg/mL of a poly-L-lysine (SIGMA P2636, St. Louis, Mo., USA) solution was aseptically prepared with a 0.15 M borate buffer (pH 8.5). […] of the solution was added to the 96-well polystyrene culture plate and incubated at room temperature for one or more hours or at 4° C. overnight or longer. Thereafter, the coated 96-well polystyrene culture plate was washed with sterile water four or more times, and then dried or rinsed with, for example, sterile PBS or medium, and used for cell plating. The plated cells were cultured in the culture plate at 37° C. in 5% CO2-95% air for one day. Then, the total amount of the medium was replaced with a fresh Neurobasal™/B27/2-ME medium, and then the cells were cultured for further three days.
# The drug was added to the culture plate on Day 4 of culture as follows. The total amount of the medium was removed from the wells, and 180 μL/well of Neurobasal medium not containing 2-ME and containing 2% B-27 (Neurobasal/B27) was added thereto. A solution of the test compound in dimethyl sulfoxide (hereinafter abbreviated as DMSO) was diluted with Neurobasal/B27 to a concentration 10-fold higher than the final concentration. 20 μL/well of the dilution was added to and sufficiently mixed with the medium. The final DMSO concentration was 1% or less. Only DMSO was added to the control group.
# The cells were cultured for three days after addition of the compound, and the total amount of the medium was collected. […]
row,SMILES,IC50 [nM]
1,"COc1ccc(NC(=O)c2ccc(Cl)cn2)cc1[C@]12CCC[C@H]1CSC(N)=N2 (racemic) [Example 34, (±)-N-[3-((4aR*,7aS*)-2-amino-4a,5,6,7-tetrahydro-4H-cyclopenta[d][1,3]thiazin-7a-yl)-4-methoxyphenyl]-5-chloropyridine-2-carboxamide]",115
2,"NC1=N[C@@]2(c3cccc(-c4cccnc4F)c3)CN(c3ccccc3)C[C@H]2CS1 (racemic) [Example 36, (±)-(4aR,7aS)-7a-[3-(2-fluoro-pyridin-3-yl)phenyl]-6-phenyl-4,4a,5,6,7,7a-hexahydropyrrolo[3,4-d][1,3]thiazin-2-ylamine]",384
3,"NC1=N[C@@]2(c3cccc(-c4cccnc4F)c3)CN(c3ncccn3)C[C@H]2CS1 (racemic) [Example 37, (±)-(4aR*,7aS*)-7a-[3-(2-fluoropyridin-3-yl)phenyl]-6-pyrimidin-2-yl-4,4a,5,6,7,7a-hexahydropyrrolo[3,4-d][1,3]thiazin-2-ylamine]",29
4,NC1=N[C@@]2(c3cc(NC(=O)c4ccc(Cl)cn4)ccc3OC(F)(F)F)CCOC[C@H]2CS1 (racemic) [Example 149],414
5,"N#Cc1ccc(C(=O)Nc2cc(F)cc([C@]34CCC[C@H]3CSC(N)=N4)c2)nc1 (racemic) [Example 158, (±)-N-[3-((4aR*,7aS*)-2-amino-4a,5,6,7-tetrahydro-4H-cyclopenta[d][1,3]thiazin-7a-yl)-5-fluorophenyl]-5-cyanopyridine-2-carboxamide]",53
6,"NC1=N[C@@]2(c3cc(-c4cccnc4F)ccc3F)CCC[C@H]2CS1 (racemic) [Example 160, (±)-(4aR*,7aS*)-7a-[2-fluoro-5-(2-fluoropyridin-3-yl)phenyl]-4,4a,5,6,7,7a-hexahydrocyclopenta[d][1,3]thiazin-2-ylamine]",521
7,"NC1=N[C@@]2(c3cccc(-c4cccnc4F)c3)CN(c3ccc(F)cc3)C[C@H]2CS1 (racemic) [Example 226, (±)-(4aR*,7aS*)-6-(4-fluorophenyl)-7a-[3-(2-fluoropyridin-3-yl)phenyl]-4,4a,5,6,7,7a-hexahydropyrrolo[3,4-d][1,3]thiazin-2-ylamine]",233
8,"N#Cc1cccc(-c2cccc([C@]34CN(c5cnccn5)C[C@H]3CSC(N)=N4)c2)c1 (racemic) [Example 229, (±)-3′44aR*,7aS*)-2-amino-6-pyrazin-2-yl-4a,5,6,7-tetrahydro-4H-pyrrolo[3,4-d][1,3]thiazin-7a-yl)biphenyl-3-carbonitrile]",544
9,"N#Cc1ccc(C(=O)Nc2cc(Cl)cc([C@]34CCC[C@H]3CSC(N)=N4)c2)nc1 (racemic) [Example 240, (±)-N-[3-((4aR*,7aS*)-2-amino-4a,5,6,7-tetrahydro-4H-cyclopenta[d][1,3]thiazin-7a-yl)-5-chlorophenyl]-5-cyanopyridine-2-carboxamide]",39
10,"NC1=N[C@@]2(c3cc(-c4cccnc4F)c(F)cc3F)CCCC[C@H]2CS1 (racemic) [Example 245, (±)-(4aR*,8aS*)-8a-[2,4-difluoro-5-(2-fluoropyridin-3-yl)phenyl]-4a,5,6,7,8,8a-hexahydro-4H-benzo[d][1,3]thiazin-2-ylamine]",1160
11,"NC1=N[C@@]2(c3cc(NC(=O)c4ccc(Cl)cn4)ccc3F)CCC[C@H]2CS1 (relative stereo) [Example 5, (+)-N-[3-((4aR*,7aS*)-2-amino-4a,5,6,7-tetrahydro-4H-cyclopenta[d][1,3]thiazin-7a-yl)-4-fluorophenyl]-5-chloropyridine-2-carboxamide]",3
12,"NC1=N[C@@]2(c3cc(NC(=O)c4ccccn4)ccc3F)CCC[C@H]2CS1 (relative stereo) [Example 6, N-[3-((4aR*,7aS*)-2-amino-4a,5,6,7-tetrahydro-4H-cyclopenta[d][1,3]thiazin-7a-yl)-4-fluorophenyl]pyridine-2-carboxamide]",88
13,"NC1=N[C@@]2(c3cc(NC(=O)c4ccc(F)cn4)ccc3F)CCC[C@H]2CS1 (relative stereo) [Example 9, N-[3-((4aR*,7aS*)-2-amino-4a,5,6,7-tetrahydro-4H-cyclopenta[d][1,3]thiazin-7a-yl)-4-fluorophenyl]-5-fluoropyridine-2-carboxamide]",28
14,"N#Cc1ccc(C(=O)Nc2ccc(F)c([C@]34CCCC[C@H]3CSC(N)=N4)c2)nc1 (relative stereo) [Example 19, N-[3-((4aR*,8aS*)-2-amino-4,4a,5,6,7,8-hexahydrobenzo[d][1,3]thiazin-8a-yl)-4-fluorophenyl]-5-cyanopyridine-2-carboxamide]",45
15,"NC1=N[C@@]2(c3cc(NC(=O)c4cnc(OCF)cn4)ccc3F)CCC[C@H]2CS1 (relative stereo) [Example 21, N-[3-((4aR*,7aS*)-2-amino-4a,5,6,7-tetrahydro-4H-cyclopenta[d][1,3]thiazin-7a-yl)-4-fluorophenyl]-5-fluoromethoxypyrazine-2-carboxamide]",13
16,"NC1=N[C@@]2(c3cc(NC(=O)c4ccc(OCF)cn4)ccc3F)CCC[C@H]2CS1 (relative stereo) [Example 23, N-[3-((4aR*,7aS*)-2-amino-4a,5,6,7-tetrahydro-4H-cyclopenta[d][1,3]thiazin-7a-yl)-4-fluorophenyl]-5-fluoromethoxypyridine-2-carboxamide]",10
17,"N#Cc1ccc(C(=O)Nc2ccc(F)c([C@]34COC[C@H]3CSC(N)=N4)c2)nc1 (relative stereo) [Example 24, N-[3-((4aS*,7aS*)-2-amino-4a,5-dihydro-4H-furo[3,4-d][1,3]thiazin-7a-yl)-4-fluorophenyl]-5-cyanopyridine-2-carboxamide]",4.3
18,"NC1=N[C@@]2(c3cc(NC(=O)c4cnc(OC(F)F)cn4)ccc3F)COC[C@H]2CS1 (relative stereo) [Example 25, N-[3-((4aS*,7aS*)-2-amino-4a,5-dihydro-4H-furo[3,4-d][1,3]thiazin-7a-yl)-4-fluorophenyl]-5-difluoromethoxypyrazine-2-carboxamide]",6.1
19,"NC1=N[C@@]2(c3cc(NC(=O)c4ccc(Cl)cn4)ccc3F)COC[C@H]2CS1 (relative stereo) [Example 26, N-[3-((4aS*,7aS*)-2-amino-4a,5-dihydro-4H-furo[3,4-d][1,3]thiazin-7a-yl)-4-fluorophenyl]-5-chloropyridine-2-carboxamide]",6.9
20,"NC1=N[C@@]2(c3cc(NC(=O)c4cnc(OC(F)F)cn4)ccc3F)CCOC[C@H]2CS1 (relative stereo) [Example 29, N-[3-((4aS*,8aS*)-2-amino-4a,5,7,8-tetrahydro-4H-6-oxa-3-thia-1-azanaphthalen-8a-yl)-4-fluorophenyl]-5-difluoromethoxypyrazine-2-carboxamide]",4
21,"NC1=N[C@@]2(c3cc(NC(=O)c4ccc(Cl)cn4)ccc3F)CCOC[C@H]2CS1 (relative stereo) [Example 30, N-[3-((4aS*,8aS*)-2-amino-4a,5,7,8-tetrahydro-4H-6-oxa-3-thia-1-azanaphthalen-8a-yl)-4-fluorophenyl]-5-chloropyridine-2-carboxamide]",11
22,"CO[C@H]1C[C@H]2CSC(N)=N[C@@]2(c2cc(NC(=O)c3ccc(C#N)cn3)ccc2F)C1 (relative stereo) [Example 31, (+)-N-[3-((4aR*,6S*,7aS*)-2-amino-6-methoxy-4a,5,6,7-tetrahydro-4H-cyclopenta[d][1,3]thiazin-7a-yl)-4-fluorophenyl]-5-cyanopyridine-2-carboxamide]",4

# — patent US20100317850A1 (priority 2008, published 2010)
